Measured values from ChEMBL document CHEMBL6087460, “Generating a Peptide Library Using the Repeats of Amino Acid Scaffolds Created by Sliding the Framework of a 7-mer Human Chemerin Segment and Discovery of Potent Antibacterial and Antimycobacterial Peptides” (J Med Chem, 2025).
Values belong to the compound of their own block, whether it stands above or below them. Active and inactive are the calls of the source. No cut-off for these calls is given here. Where a SMILES comes first, the peptide text is derived from it.

What was measured:
[1] = Drug localization in cytoplasm of Mycobacterium smegmatis at 1 ug/ml by confocal microscopy; assay type: ADME, subcellular; details: mycolicibacterium smegmatis; dose 1 µg/ml
[2] = Drug localization in cell membrane of Escherichia coli ATCC 25922 at 3 times MIC by confocal microscopy; assay type: ADME, cell membranes
Staphylococcus aureus [3] = assay: Bactericidal activity against Staphylococcus aureus ATCC 25923 incubated for 16 to 18 hrs; assay type: functional; details: time 16-18 hrs
Staphylococcus aureus [4] = assay: Bactericidal activity against Staphylococcus aureus ATCC 25923 at MIC incubated for about 135 mins by time kill assay relative to control; assay type: functional; details: 2.25 h
Staphylococcus aureus [5] = assay: Antibacterial activity against methicillin-resistant Staphylococcus aureus 33591 incubated for 16 to 18 hrs by broth dilution assay; assay type: functional; details: time 16-18 hrs
[6] = Retention time of compound by RP-HPLC method; assay type: physicochemical
Staphylococcus aureus [7] = assay: Disruption of plasma membrane integrity in Staphylococcus aureus ATCC 25923 by SYTOX-Green uptake assay; assay type: functional, organism-based
Escherichia coli [8] = assay: Bactericidal activity against Escherichia coli ATCC 25922 at MIC incubated for about 100 mins by time kill assay relative to control; assay type: functional; details: 1.667 h
[9] = test system: Mycolicibacterium smegmatis; assay: Antitubercular activity against Mycobacterium smegmatis incubated for 24 hrs by rezasurin dye based assay; assay type: functional
Escherichia coli [10] = assay: Disruption of plasma membrane integrity in Escherichia coli ATCC 25922 by SYTOX-Green uptake assay; assay type: functional, organism-based
Escherichia coli [11] = assay: Antibacterial activity against Escherichia coli ATCC 25922 incubated for 16 to 18 hrs by broth dilution assay; assay type: functional; details: time 16-18 hrs
Pseudomonas aeruginosa = assay: Antibacterial activity against Pseudomonas aeruginosa ATCC BAA-427 incubated for 16 to 18 hrs by broth dilution assay; assay type: functional; details: time 16-18 hrs
Escherichia coli [12] = assay: Bactericidal activity against Escherichia coli ATCC 25922 incubated for 16 to 18 hrs; assay type: functional; details: time 16-18 hrs
Escherichia coli [13] = assay: Induction of cell membrane damage in Escherichia coli ATCC 25922 at 3 times MIC incubated for 60 mins by SEM analysis; assay type: functional, organism-based
Staphylococcus aureus [14] = assay: Antibacterial activity against methicillin-resistant Staphylococcus aureus BAA-44 incubated for 16 to 18 hrs by broth dilution assay; assay type: functional; details: time 16-18 hrs
Staphylococcus aureus [15] = assay: Induction of cell membrane damage in Staphylococcus aureus ATCC 25923 at 3 times MIC incubated for 60 mins by SEM analysis; assay type: functional, organism-based
Klebsiella pneumoniae = assay: Antibacterial activity against Klebsiella pneumoniae ATCC 27736 incubated for 16 to 18 hrs by broth dilution assay; assay type: functional; details: time 16-18 hrs
Staphylococcus aureus [16] = assay: Antibacterial activity against Staphylococcus aureus ATCC 25923 incubated for 16 to 18 hrs in presence of 10 percent human serum by broth dilution assay; assay type: functional; details: time 16-18 hrs
Escherichia coli [17] = assay: Antibacterial activity against Escherichia coli ATCC 25922 incubated for 16 to 18 hrs in presence of 10 percent human serum by broth dilution assay; assay type: functional; details: time 16-18 hrs
[18] = Hemolytic activity in human RBC measured after 40 mins by absorbance based assay; assay type: toxicity, cell-based, Erythrocyte; details: human red blood cells
Escherichia coli [19] = assay: Disruption of membrane integrity in Escherichia coli ATCC 25922 by PI staining based analysis; assay type: functional, organism-based
Escherichia coli [20] = assay: Induction of membrane depolarization in Escherichia coli ATCC 25922 by diSC3-5 dye based analysis; assay type: functional, organism-based
Staphylococcus aureus [21] = assay: Induction of membrane depolarization in Staphylococcus aureus ATCC 25923 by diSC3-5 dye based analysis; assay type: functional, organism-based
Staphylococcus aureus [22] = assay: Antibacterial activity against Staphylococcus aureus ATCC 25923 incubated for 16 to 18 hrs by broth dilution assay; assay type: functional; details: time 16-18 hrs
[23] = Hemolytic activity in human RBC assessed as disruption of membrane integrity by Alexa Fluor-Annexin V staining based analysis; assay type: toxicity, cell-based; details: erythrocyte
Bacillus subtilis = assay: Antibacterial activity against Bacillus subtilis 6633 incubated for 16 to 18 hrs by broth dilution assay; assay type: functional; details: time 16-18 hrs
[24] = Cytotoxicity against mouse 3T3-L1 cells assessed as cell viability at 100 uM incubated for 24 hrs by MTT assay relative to control; assay type: toxicity, cell-based; details: 3T3-L1 cells, read-out: Activity
[25] = Cytotoxicity against rat L6 cells assessed as cell viability at 100 uM incubated for 24 hrs by MTT assay relative to control; assay type: toxicity, cell-based; details: L6 cells, read-out: Activity
Staphylococcus aureus [26] = assay: Disruption of membrane integrity in Staphylococcus aureus ATCC 25923 by PI staining based analysis; assay type: functional, organism-based

Drug uptake [1]: Active | Drug uptake [2]: Active
Compound: CC(C)C[C@H](NC(=O)[C@H](CCCNC(=N)N)NC(=O)CNC(=O)[C@@H](NC(=O)[C@H](CC(C)C)NC(=O)[C@H](CCCNC(=N)N)NC(=O)CNC(=O)[C@@H](NC(=O)[C@H](CC(C)C)NC(=O)[C@H](CCCNC(=N)N)NC(=O)CNC(=O)[C@@H](NC(=O)[C@H](CC(C)C)NC(=O)[C@H](CCCNC(=N)N)NC(=O)CNC(=O)c1cc(C(=O)O)ccc1-c1c2ccc(=[N+](C)C)cc-2oc2cc(N(C)C)ccc12)C(C)C)C(C)C)C(C)C)C(=O)N[C@H](C(=O)O)C(C)C.[Cl-] (HELM PEPTIDE1{[CN(C)c1ccc2c(-c3ccc(C(=O)O)cc3C(=O)[*:2])c3ccc(=[N+](C)C)cc-3oc2c1].G.R.L.V.G.R.L.V.G.R.L.V.G.R.L.V}$$$$V2.0)

Compound: H-GRLGRLGRLGRLGRL-OH
MBC (Staphylococcus aureus [3]): 7.6 µM | Activity (Staphylococcus aureus [4]): 100% | MIC (Staphylococcus aureus [5]): 15.2 µM | Retention_time [6]: 16.17 min | Activity (Staphylococcus aureus [7]): inactive | Activity (Escherichia coli [8]): 100% | MIC [9]: 5 µM | Activity (Escherichia coli [10]): inactive | MIC (Escherichia coli [11]): 3.8 µM | MIC (Pseudomonas aeruginosa): 15.2 µM | MBC (Escherichia coli [12]): 15.2 µM | Activity (Escherichia coli [13]): inactive | MIC (Staphylococcus aureus [14]): 15.2 µM | Activity (Staphylococcus aureus [15]): inactive | MIC (Klebsiella pneumoniae): 60.6 µM | MIC (Staphylococcus aureus [16]): 15.2 µM | MIC (Escherichia coli [17]): 15.2 µM | HC50 at 40 min [18]: 2 mM | Activity (Escherichia coli [19]): inactive | Activity (Escherichia coli [20]): inactive | Activity (Staphylococcus aureus [21]): inactive | MIC (Staphylococcus aureus [22]): 3.8 µM | Activity [23]: Non-toxic | MIC (Bacillus subtilis): 15.2 µM | viability at 24 h, 100 µM [24]: > 80% | viability at 24 h, 100 µM [25]: > 80% | Activity (Staphylococcus aureus [26]): inactive
